The source of these data is patent publication US20220162257A1, “3ALPHA, 5BETA-NEUROACTIVE STEROIDS FOR THE TREATMENT OF EPILEPSY AND SEIZURE DISEASES” (USTAV ORGANICKE CHEMIE A BIOCHEMIE AV CR, V. V. I., priority 2019, published 2022).

Counter-ions that a name gives are not always drawn.

Data set [1] concerns PTZ-induced seizures in 12- and 25-day-old rats. As to the kind of experiment: PTZ-induced generalized tonic-clonic seizures in immature rats. It counts as in vivo, rat. On the procedure: Anticonvulsant effect of compounds was evaluated in two models of epileptic seizures in immature rats (PTZ model and 6 Hz model). PTZ convulsions were tested in 12- and 25-day-old rats, 6 Hz-induced seizures in 15- and 25-day-old rats. Young adult rats (P60) were also used in either test. Day of birth was taken as P0. Experiments evaluating precognitive effect were performed in adult male rats of the Wistar and Long Evans strain (3 months old, b.w. 300-400 g). All animals were obtained from a breeding facility of Institute of Physiology CAS (certificate No. 1396/2014-MZE-17214) Animals were held in standard conditions (21±1° C., humidity 50-60%, light regime 12/12) with unrestricted access to food and water. All manipulations with animals were performed according to the https://nc3rs.org.uk/arrive-guidelines and to Czech Animal Protection Law 246/1992 Sb. And international directives (EU Directive 2010/63/EU for animals' experiments).
Two age groups of immature male Wistar rats were used in either experiment. In PTZ model P12 corresponding by a maturation of the brain to early postnatal human babies, i.e. to the period where children epileptic encephalopathy mostly resistant to present pharmacotherapy start to appear. The other group—P25 animals corresponds with school-age children. Generalized tonic-clonic seizures were elicited by a subcutaneous injection of PTZ in a dose of 100 mg/kg. The 6 Hz model was tested in P15 (at this age eyes are open and it is not necessary to surgically distract lids). Biphasic pulses with […] were applied transcorneally for 3 s by a constant current stimulator of Ugo Basile company. PTZ induced generalized seizures represent a model of human generalized tonic-clonic seizures, seizures elicited by 6 Hz stimulation are generally taken as a model of temporal (psychomotor, complex partial) seizures. Differences in latencies and seizure severity were evaluated by ANOVA with a subsequent pairwise comparison by Holm-Sidak test. Incidence of seizures were evaluated by Fischer exact test. Critical p value was set at p=0.05.
Anticonvulsant effect was studied in 12- and 25-day-old male Wistar rats. Steroid derivatives were administered at doses of 1, 5 and 10 mg/kg i.p. 20 min before the administration of PTZ (100 mg/kg s.c.).

For data set [2], the system named is experimental seizures in animal models. The note with it: cited from earlier work; for effect in experimental seizures: seizures elicited by pentylenetetrazol, pilocarpine, NMDA and kainic acid.
For data set [3], the system named is PTZ-induced seizures in zebrafish (Danio rerio). Nature of the data set: pentetrazol (PTZ)-induced seizures in zebrafish larvae. It counts as in vivo. The settings on record: 7 dpf larvae, PTZ 5 mmol/L; for epileptiform locomotor activity in the dark phase/light test, sedation: doses of 1, 3 and 5 mg/kg; for locomotor activity epileptiform induced by PTZ (spontaneous locomotor activity, maximum velocity, angle turns): doses of 1, 3 and 5 mg/kg (1, 3 and 5 μmol/L in the source). On the procedure: Adults wild-type (strain AB) zebrafish (Danio rerio) were maintained at 28-29° C. on a light cycle of 14 h light:10h dark (lights on at 7 am; lights off at 9 pm) at ZeClinics animal facility (Barcelona). All procedures involving animals and their care were conducted accordingly to CEA-OH/9421/2 authorization from Government of Catalonia. Embryos obtained by pairwise mating were raised in E3 media at the controlled temperature of 28.5° C. until 7 days post-fertilization (dpf) when the experiments were performed.
The anticonvulsant activity of the claimed compounds on the nervous system of zebrafish (Danio rerio). This test is the modern alternative to tests in adult animals as Danio rerio is very versatile organism that has a number of physiological similarities to mammals, including humans (Expert Opin. Drug Metab. Toxicol. 2009, 5, 393). Steroidal compounds were tested in three concentrations (1, 3 and 5 μmol.L^−1) on 7 days post-fertilization (dpf) wild-type larvae. As a negative control, sibling larvae were incubated with DMSO 1%, which allows us to detect behavioral alterations of PTZ treated larvae. Seizures were induced by treatment of pentetrazol (PTZ) at the dose 5 mmol.L^−1. Commercially available anti-convulsant drug Topiramate was used as comparator. Results were analyzed with GraphPad Prism software and statistical significance is assessed by the One-way ANOVA statistical analysis followed by Tukey's multiple comparisons test. The zebrafish larvae locomotion and response to visual stimuli are traced and analyzed by the EthoVision XT 12 software and the DanioVision device from Noldus Information Technologies, Wageningen, The Netherlands.
This closed system consists of a camera placed above a chamber with circulating water and a temperature sensor that is set at 28° C. Individualized larvae in a 48-wells plate are placed in the chamber, which can provide different stimuli (light/dark environment, tapping, sound) controlled by the software. Prior to each experiment, larvae were left for 10 minutes in dark for acclimation, then predetermined series of alternating dark and light environment are presented to the larvae. The final experimental protocol is divided in three main part: first a 15 minutes step with light on, then a series of 5 short flashes of light to induce epileptic seizures and finally a 25 minutes dark/light alternating environments phase. Different sets of information can be extrapolated from the different phases: while the first step is useful to detect changes in the total larvae locomotion, the second part allows us to analyze the larval response to a seizure-inducing visual stimulus and measure the seizure characteristics: the maximum velocity and the number of angles turns (specific of seizure erratic movement). The final phase is useful to detect anomalies in larval movement and deviations from the stereotyped behavior (natural locomotor behavior of zebrafish is active in dark and immobile in light). The anticonvulsant effect of compounds was studied at doses of […] for the compound shown in Example 1, Example 2 and Example 3.

Data set [4] has as its system adults and children. The note with it: clinical studies; cited from earlier work.
Setting [5] is: both age groups (P12, P25), 5 and 10 mg/kg i.p.

`CC(=O)[C@H]1CC[C@H]2[C@@H]3CC[C@H]4C[C@@H](OC(=O)[C@@H]5CCC(=O)N5)CC[C@]4(C)[C@H]3CC[C@]12C` [Allopregnanolone (S)-5-oxopyrrolidin-2-carboxylate, reference compound]: the “action against generalized tonic-clonic seizures” value in data set [1] (PTZ 100 mg/kg s.c., 12- and 25-day-old rats) is listed as “only a moderate action”.
Regarding `CC(=O)[C@H]1CC[C@H]2[C@@H]3CC[C@@H]4C[C@H](OC(=O)C5CCC(=O)N5)CC[C@]4(C)[C@H]3[C@H](O)C[C@]12C` (stereo partly shown), the melting point (commonly the temperature, or range, at which the solid turns liquid) lay within 183 to 185 °C.
The same measure, in the same setting: the value for `C/C=C1/CC[C@H]2[C@@H]3CC[C@@H]4C[C@H](OC(=O)C5CCC(=O)N5)CC[C@]4(C)[C@H]3CC[C@]12C` (stereo partly shown) was 155 to 157 °C; that for `C[C@@]12CCC[C@H]1[C@@H]1CC[C@@H]3C[C@H](OC(=O)C4CCC(=O)N4)CC[C@]3(C)[C@H]1CC2` (stereo partly shown) was 136 to 137 °C; that for `C[C@@]12CCC[C@H]1[C@@H]1CC[C@@H]3C[C@H](OC(=O)C4CCCC(=O)N4)CC[C@]3(C)[C@H]1CC2` (stereo partly shown) was 109 to 111 °C.
With `CC(=O)[C@H]1CC[C@H]2[C@@H]3CCC4=CC(=O)CC[C@]4(C)[C@H]3CC[C@]12C` [PROG, pregn-4-en-3,20-dione], in data set [2], the “effect in experimental seizures” value is reported as “significant effect”.
`C[C@]12CC[C@@H](OC(=O)C3CCC(=O)N3)C[C@H]1CC[C@@H]1[C@@H]2CC[C@]2(C)C(=O)CC[C@@H]12` (stereo partly shown) had a melting point of 114 to 116 °C.
On the same count and under the same terms, the value for `CC(=O)NCC(=O)O[C@@H]1CC[C@@]2(C)[C@H](CC[C@@H]3[C@@H]2CC[C@]2(C)[C@@H](C(C)=O)CC[C@@H]32)C1` was 111 to 113 °C.
Consider `CC(=O)[C@H]1CC[C@H]2[C@@H]3CC[C@@H]4C[C@H](OC(=O)C5CCCC(=O)N5)CC[C@]4(C)[C@H]3CC[C@]12C` (stereo partly drawn) [Example 2, (3R,5R,8R,9S,10S,13S,14S,17S)-17-Acetyl-10,13-dimethylhexadecahydro-1H-cyclopenta[a]phenantren-3-yl 6-oxopiperidine-2-carboxylate], for which, in data set [1] (setting [5]), the “incidence of GTCS” value is listed as “suppressed significantly” and the seizure severity entry is on record as “suppressed significantly”. Besides, in data set [3], the “epileptiform locomotor activity in the dark phase/light test, sedation” value is “decreased epileptiform locomotor activity in the dark phase/light test without causing sedation” and the “locomotor activity epileptiform induced by PTZ (spontaneous locomotor activity, maximum velocity, angle turns)” value is listed as “significantly reduced the locomotor activity epileptiform induced by PTZ”.
As to `CC(=O)[C@H]1CC[C@H]2[C@@H]3CC[C@H]4C[C@H](O)CC[C@]4(C)[C@H]3CC[C@]12C` [ALLO, 20-oxo-5α-pregnan-3α-ol], the “frequency of seizures, mortality and cellular death” value in data set [2] (animal models of epilepsy) is “deceases frequency of seizures, mortality and cellular death”. In data set [2], the “effect in experimental seizures” value is listed as “significant effect”.
As to `C[C@@]12CCC[C@H]1[C@@H]1CC[C@@H]3C[C@H](OCCOC(=O)C4CCCC(=O)N4)CC[C@]3(C)[C@H]1CC2` (stereo partly shown), the melting point lay within 117 to 119 °C.
As to `CC(=O)[C@H]1CC[C@H]2[C@@H]3CC[C@H]4C[C@](C)(O)CC[C@]4(C)[C@H]3CC[C@]12C` [Ganaxolone], in data set [2] (rodents), the generation of seizures entry is “able to prevent generation of seizures in rodents”. Also, the tolerability entry in data set [4] is “good tolerability in adults as well as children”.
As for `CC(=O)[C@H]1CC[C@H]2[C@@H]3CCC4=C[C@@H](OC(=O)[C@@H]5CCCN5)CC[C@]4(C)[C@H]3CC[C@]12C` [PI-33, 3β-L-proline-progesterone-HCl, reference compound], the “incidence of generalized tonic-clonic seizures” value in data set [1] (1 and 10 mg/kg doses) is “did not change incidence of generalized tonic-clonic seizures”.
In turn, `C[C@@]12CCC[C@H]1[C@@H]1CC[C@@H]3C[C@H](OCCOC(=O)C4CCC(=O)N4)CC[C@]3(C)[C@H]1CC2` (stereo partly shown) came in with a melting point of 110 to 111 °C.
The same measure, in the same setting: the figure for `C[C@H]1CC[C@H]2[C@@H]3CC[C@@H]4C[C@H](OC(=O)C5CCC(=O)N5)CC[C@]4(C)[C@H]3CC[C@]12C` (stereo partly shown) is 157 to 158 °C.
As to `C[C@]12CC[C@@H](OC(=O)C3CCCC(=O)N3)C[C@H]1CC[C@@H]1[C@@H]2CC[C@]2(C)[C@@H](C#N)CC[C@@H]12` (stereo partly shown), the melting point was in the range of 69 to 71 °C.
On to `C[C@]12CC[C@@H](OC(=O)C3CCC(=O)N3)C[C@H]1CC[C@@H]1[C@@H]2CC[C@]2(C)[C@@H](C#N)CC[C@@H]12` (stereo partly drawn) [Example 3, (3R,5R,8R,9S,10S,13S,14S,17S)-17-Cyano-10,13-dimethylhexadecahydro-1H-cyclopenta[a]phenanthren-3-yl 5-oxopyrrolidine-2-carboxylate], for which the “incidence of GTCS” value in data set [1] (P12 rats, 1, 5, 10 mg/kg i.p.) was “significantly affected only by the 5-mg/kg dose”; in data set [1] (P25 rats, 5 and 10 mg/kg i.p.) it was “suppressed incidence of GTCS”. For the same molecule, the “epileptiform locomotor activity in the dark phase/light test, sedation” value in data set [3] was “decreased epileptiform locomotor activity in the dark phase/light test without causing sedation”. The “locomotor activity epileptiform induced by PTZ (spontaneous locomotor activity, maximum velocity, angle turns)” value in data set [3] is listed as “significantly reduced the locomotor activity epileptiform induced by PTZ”.
